Data published in PMC6234229, “The role of loops B and C in determining the potentiation of GABAA receptors by midazolam” (Pharmacology Research & Perspectives, 2018).

Key:
Experiment in all cases: GABA concentration-response assay, whole-cell patch clamp, HEK293T
Type in all cases: cell-based
Settings in all cases: GABA Hill fit
[1] = target: T1, α1(H102R)β2γ2 GABAA receptor (Homo sapiens, UniProt P14867+P18507+P47870, H129R)
T1 construct: expressed in transfected cells; host or cells: HEK293T
Text: (§1) Human (Homo sapiens) GABAA subunits (α1‐6, β2, γ2s) were subcloned into pcDNA3.1+ vectors with a cytomegalovirus (CMV) promoter. The hβ2 and hα3 sequences were humanized rat (Rattus norvegicus) cDNA with amino acid substitutions made to match the human protein sequence. The α1‐3, α5, β2, and γ2s subunits were a generous gift from Neil L. Harrison (Columbia University Medical Center, NY). The α4 subunit was obtained from GenScript (Piscataway, NJ), and the α6 subunit was a generous gift from Robert L. McDonald (Vanderbilt University, TN). All point mutations (listed in Figure 1C) were introduced using the QuikChange Lightening site‐directed mutagenesis kit (Agilent Technologies, Santa Clara, CA) according to the manufacturer's instructions and were confirmed by sequencing (Eurofins MWG Operon, Louisville, KY).
(§2) Human embryonic kidney cells containing the SV40 T‐antigen (HEK293T) were acquired from American Type Culture Collection (ATCC®, Manassas, VA), catalogue number, CRL3216. HEK293T cells were maintained at 37°C and 5% CO2 in Eagle Minimum Essential Medium (MEM) supplemented with 5% fetal bovine serum (Atlanta Biologicals Inc., Flowery Branch, GA), 40 μM L‐glutamine, 100 U/mL penicillin and 0.1 mM streptomycin. Cells were passaged regularly when they reached 70% confluency using trypsin. Cells were not passaged more than 22 times. New cells were revived from frozen stocks at passage 2‐4. Cells used for in vitro electrophysiology experiments were grown on poly‐D‐lysine‐coated glass coverslips (No.2, VWR, Radnor, PA) and transfected with X‐tremeGENE (Roche Diagnostics, Indianapolis, IN) with the desired receptor subunit cDNAs at a 1:1:1 ratio to express αxβ2γ2s receptors (2 μg total cDNA) and with 0.5 μg green fluorescent protein (GFP) as an expression marker. The γ2s incorporation into receptors was tested with zinc inhibition assays regularly.24 Patch clamp experiments were performed on cells at 24‐72 hours post‐transfection. All experiments were performed at 22°C. Experiments consisted of at least five cells recorded per day from at least two transfections across 3‐4 days to control for cell health and transfection efficiency. At least three cells expressing wild‐type receptors were recorded on days that mutant receptors were tested to provide a time‐matched expression control. All reagents were purchased from Sigma‐Aldrich (St. Louis, MO) unless otherwise stated.
(§3) Extracellular solution contained 161 mM NaCl, 3 mM KCl, 1 mM MgCl2, 1.5 mM CaCl2, 10 mM HEPES, and 6 mM D‐glucose, adjusted to pH 7.4 with NaOH (320‐330 mOsm). […] The perfusion system was controlled by protocols written in pClamp 9 (Molecular Devices, LLC., Sunnyvale, CA). Whole‐cell currents were recorded at ‐60 mV, filtered at 100 Hz and sampled at 200 Hz with a MultiClamp 700B amplifier (Molecular Devices, LLC) and DigiData 1322A (Molecular Devices, LLC) digitizer. […] Cells were recorded with the midazolam protocol no more than two times to avoid desensitization and incomplete washout or irreversible modulation.
(§4) Recordings were analyzed using MATLAB (Math Works, Inc., Natick, MA). […] The maximum peak current, EC50 and Hill coefficient were estimated for assays from each cell. When Hill parameters are estimated from whole‐cell recordings, the changes in the parameters across receptor conditions can be ascribed to the following changes in receptor physiology. Changes in maximum current can be due to changes in the single‐channel conductance or the rate of desensitization. Changes in cell surface receptor expression can cause minor changes in maximum current, but are unlikely to occur in the time course of our experimental protocol. […] More often minor changes in the Hill coefficient are attributed to the altered homogeneity in the receptor population expressed by the HEK293T cell. For example, a shallower Hill coefficient could be caused by a shift in the population of receptors from mostly αβγ receptors to a combination of both αβ and αβγ receptors.

[2] = target: T2, α1(S206I)β2γ2 GABAA receptor (Homo sapiens, UniProt P14867+P18507+P47870, S233I)
T2 construct: expressed in transfected cells; host or cells: HEK293T
Text: as §1, §2, §3, §4

[3] = target: T3, α2(T162P)β2γ2 GABAA receptor (Homo sapiens, UniProt P18507+P47869+P47870, T190P)
T3 construct: expressed in transfected cells; host or cells: HEK293T
Text: as §1, §2, §3, §4

[4] = target: T4, α3(S230I)β2γ2 GABAA receptor (Homo sapiens, UniProt P18507+P34903+P47870, S258I)
T4 construct: expressed in transfected cells; host or cells: HEK293T
Text: as §1, §2, §3, §4

T4 sequence (P34903 29-492 S258I): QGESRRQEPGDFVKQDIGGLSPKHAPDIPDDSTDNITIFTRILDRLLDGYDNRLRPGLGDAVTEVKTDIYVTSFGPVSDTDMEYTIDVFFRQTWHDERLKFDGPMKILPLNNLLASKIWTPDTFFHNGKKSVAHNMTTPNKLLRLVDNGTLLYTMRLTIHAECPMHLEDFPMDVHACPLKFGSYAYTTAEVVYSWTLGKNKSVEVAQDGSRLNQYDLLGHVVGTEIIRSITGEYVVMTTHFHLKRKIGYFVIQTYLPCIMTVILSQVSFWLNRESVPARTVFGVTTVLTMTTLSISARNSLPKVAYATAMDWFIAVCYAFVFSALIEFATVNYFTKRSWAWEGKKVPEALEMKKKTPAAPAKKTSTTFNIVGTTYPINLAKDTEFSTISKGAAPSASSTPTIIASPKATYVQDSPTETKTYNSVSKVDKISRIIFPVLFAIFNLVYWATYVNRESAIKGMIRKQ
T4 sequence (P47870 25-512 limits assumed): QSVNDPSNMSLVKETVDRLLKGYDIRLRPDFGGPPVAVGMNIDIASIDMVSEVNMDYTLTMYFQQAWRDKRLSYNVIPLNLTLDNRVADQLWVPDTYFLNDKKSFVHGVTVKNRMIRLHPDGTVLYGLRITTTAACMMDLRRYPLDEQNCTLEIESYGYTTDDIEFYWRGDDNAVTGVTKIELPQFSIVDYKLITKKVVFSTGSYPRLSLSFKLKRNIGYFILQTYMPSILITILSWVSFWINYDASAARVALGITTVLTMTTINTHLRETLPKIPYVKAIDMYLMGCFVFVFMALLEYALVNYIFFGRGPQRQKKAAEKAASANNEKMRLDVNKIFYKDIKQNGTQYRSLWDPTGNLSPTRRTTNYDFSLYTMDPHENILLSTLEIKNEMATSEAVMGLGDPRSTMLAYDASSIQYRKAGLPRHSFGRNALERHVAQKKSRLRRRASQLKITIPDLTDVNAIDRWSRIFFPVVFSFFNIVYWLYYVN
T4 sequence (P18507 40-467 isoform P18507-1 limits assumed, stated change not applied): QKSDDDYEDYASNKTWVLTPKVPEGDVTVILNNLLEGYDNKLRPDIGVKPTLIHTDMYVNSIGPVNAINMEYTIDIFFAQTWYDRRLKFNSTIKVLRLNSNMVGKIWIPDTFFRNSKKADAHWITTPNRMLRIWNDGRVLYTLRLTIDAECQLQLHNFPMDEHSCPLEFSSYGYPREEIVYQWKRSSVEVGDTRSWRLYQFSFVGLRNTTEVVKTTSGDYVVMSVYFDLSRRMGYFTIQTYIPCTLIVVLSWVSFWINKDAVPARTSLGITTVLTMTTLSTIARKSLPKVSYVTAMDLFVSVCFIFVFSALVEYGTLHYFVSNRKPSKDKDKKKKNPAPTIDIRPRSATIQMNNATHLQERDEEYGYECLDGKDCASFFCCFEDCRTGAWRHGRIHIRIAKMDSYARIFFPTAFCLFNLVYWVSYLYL
T1 sequence (P14867 28-456 H129R): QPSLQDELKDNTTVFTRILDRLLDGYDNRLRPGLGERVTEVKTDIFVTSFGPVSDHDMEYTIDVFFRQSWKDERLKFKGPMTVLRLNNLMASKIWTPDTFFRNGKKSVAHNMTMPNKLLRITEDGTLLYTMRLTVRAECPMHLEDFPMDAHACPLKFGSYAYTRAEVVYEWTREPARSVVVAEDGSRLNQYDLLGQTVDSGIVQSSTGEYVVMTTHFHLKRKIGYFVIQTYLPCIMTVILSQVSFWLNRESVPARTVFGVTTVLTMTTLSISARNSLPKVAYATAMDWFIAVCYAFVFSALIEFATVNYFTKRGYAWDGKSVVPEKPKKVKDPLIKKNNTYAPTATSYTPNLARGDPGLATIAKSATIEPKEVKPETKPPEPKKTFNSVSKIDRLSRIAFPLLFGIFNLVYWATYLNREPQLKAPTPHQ
T1 sequence (P47870 25-512 limits assumed): as the sequence (P47870 25-512 limits assumed) above
T1 sequence (P18507 40-467 isoform P18507-1 limits assumed, stated change not applied): as the sequence (P18507 40-467 isoform P18507-1 limits assumed, stated change not applied) above
T3 sequence (P47869 29-451 T190P): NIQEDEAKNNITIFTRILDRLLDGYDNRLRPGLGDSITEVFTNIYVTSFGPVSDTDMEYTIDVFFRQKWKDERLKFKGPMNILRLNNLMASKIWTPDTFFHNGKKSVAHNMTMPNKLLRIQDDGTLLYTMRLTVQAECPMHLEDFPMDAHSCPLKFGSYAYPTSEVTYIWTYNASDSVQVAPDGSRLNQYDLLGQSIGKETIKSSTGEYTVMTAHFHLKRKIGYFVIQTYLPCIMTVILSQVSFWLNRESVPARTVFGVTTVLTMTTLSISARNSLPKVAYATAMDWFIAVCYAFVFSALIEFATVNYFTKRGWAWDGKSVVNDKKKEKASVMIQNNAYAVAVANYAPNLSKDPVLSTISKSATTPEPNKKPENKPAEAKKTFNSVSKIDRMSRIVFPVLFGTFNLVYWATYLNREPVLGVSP
T3 sequence (P47870 25-512 limits assumed): as the sequence (P47870 25-512 limits assumed) above
T3 sequence (P18507 40-467 isoform P18507-1 limits assumed, stated change not applied): as the sequence (P18507 40-467 isoform P18507-1 limits assumed, stated change not applied) above
T2 sequence (P14867 28-456 S233I): as the sequence (P14867 28-456 H129R) above, with R102H, S206I counted along it
T2 sequence (P47870 25-512 limits assumed, stated change not applied): as the sequence (P47870 25-512 limits assumed) above
T2 sequence (P18507 40-467 isoform P18507-1 limits assumed, stated change not applied): as the sequence (P18507 40-467 isoform P18507-1 limits assumed, stated change not applied) above

For `NCCCC(=O)O` [GABA, γ‐aminobutyric acid], the Hill coefficient [1] was 1.255 ± 0.097, the “Max Current (pA)” value [1] was -3175 ± 444.3 pA and the Hill coefficient [2] was 1.444 ± 0.104. The “Max Current (pA)” value [2] was -5007 ± 470.7 pA, the Hill coefficient [3] was 1.494 ± 0.101 and the “Max Current (pA)” value [3] was -1765 ± 246.0 pA. The Hill coefficient [4] was 1.796 and the “Max Current (pA)” value [4] was -1724 ± 286.1 pA.
